From patent US5646149A, “Compounds having both potent calcium antagonist and antioxidant activity and use thereof as cytoprotective agents” (Alcon Laboratories, Inc., priority 1995, dated 1997)
Like-named read-outs stand apart in the source and are kept apart here.

Columns and labels:
[1] = DPPH free radical scavenging assay; settings: 30 min
Description: (§1) The DPPH assay is a chemical assay used to determine free radical scavenging activity. The retinal pieces, liver microsomes and phospholipid oxidation models measure antioxidant activity. The calcium binding assay is a measure of the affinity of the compound for a calcium antagonist binding site. The test procedures are described in greater detail below.
Free radical scavenging activity was determined by measuring the test compound's ability to quench a ethanol solution of the free radical dye, 1,1-diphenyl-2-picrylhydrazyl, (DPPH). Test agents were dissolved in 95% ethanol and were added to a solution of DPPH in 95% ethanol. The final concentration of both the test compound and DPPH was 0.4 mMol. Absorbance was continuously recorded on a Perkin-Elmer Lamba 4B spectrophotometer. The percent quench was measured thirty minutes following the combination of the two solutions. (Free Rad. Res. Comms., volume 15, pages 91-100 (1991)).

bovine retinal pieces = experiment: Cytoprotection / lipid peroxidation (TBARS) in bovine retinal pieces after hypoxia-reoxygenation; format: cell-based
Description: The DPPH assay is a chemical assay used to determine free radical scavenging activity. The retinal pieces, liver microsomes and phospholipid oxidation models measure antioxidant activity. The calcium binding assay is a measure of the affinity of the compound for a calcium antagonist binding site. The test procedures are described in greater detail below. The cytoprotective effects of the compounds were measured using bovine retinal pieces. […] After 50 minutes of hypoxia, test agents were added to the media to allow 10 minutes for the drug to diffuse into the tissue prior to reoxygenation. Vehicle was added to the non-drug group. Following the incubation period, the tissue was reoxygenated for 1 h. Lipid peroxidation was assessed by the formation of thiobarbituric acid reacting substances (TBARS). The tissues were homogenized and added to TCA-TBA reagent and heated in the presence of BHT. The homogenate was filtered and the absorbance of the supernatant was measured spectrophotometrically. A double derivative technique was used to calculate the concentration of TBARS present in each sample. Quantitation was based on molar extinction coefficient of 1.56×10^5.

Liver Microsomes = experiment: Liver microsome lipid peroxidation assay; format: biochemical
Description: as §1
Antioxidant activity was also measured using a liver microsome assay (Chem. Biol. Interactions., volume 74, pages 233-52, (1990)). Microsomes were incubated in a KPi buffer. Lipid oxidation was initiated with ADP(1 mM)/FeCl3 (10 μM) and NADPH regenerating system, containing NADP^+. The lipid peroxidation was assayed by the TBA test. Malondialdehyde (MDA) was estimated by the formation of thiobarbituric acid-reactive substances. MDA-equivalents were calculated using ε=156 mM^- cm^-1. IC50S were calculated using regression lines.

Singlet oxygen quenching = experiment: Singlet oxygen quenching; set-up: key: IA: inactive; settings: 37° C., ethanol/chloroform (50:50), 5 mM NDPO2
Description: The singlet oxygen quenching activity was studied in the following manner. Singlet oxygen was generated chemically by using thermodissociation of the endoperoxide 3,3'-(1,4-naphthylidene dipropionate), NPDO2. At 37° C., 3 ml ethanol/chloroform (50:50) were placed in a thermosrated cuvette. Reactions were started by injection of 5 mM NDPO2. The singlet oxygen quenching constants were calculated according to Stern-Volmer plots, from S0 /S=1+(Kq+KR)*[Q}*I, where S0, S--chemiluminesence (1270 nm) intensities in absence and in the presence of quenchers, respectively, [Q} is the quencher concentration and I is the lifetime of singlet oxygen (see J. Amer. Chem., volume 111, pages 2904-2914, (1989)).

[2] = Phospholipid oxidation assay in liposomes; format: biochemical
Description: as §1
Antioxidant activity was measured using a phospholipid oxidation assay. Liposomes formed from dilineoleolyl phosphocholine were exposed to Fe^+3 /EDTA (167 μM) and ascorbate (167 μM). Oxidation was measured by conjugate diene formation monitored using UV spectroscopy (Biochim. Biophys. Acta., volume 1081, pages 181-187, (1991)). The IC50 was calculated using the following non-linear regression algorithm: Y=A/[1+(B/X)^c ], wherein A=maximum, B=IC50 and c=cooperativity or relative broadness of the curves. The minimum was assumed to be zero.

[3] = target: calcium antagonist binding site; experiment: Calcium binding, radioligand (nitrendipine) binding assay in rat brain cortices; settings: radiolabeled nitrendipine
Description: as §1
Calcium binding was measured using a radioligand binding assay. Brain cortices were removed from rats and a membrane fraction was prepared by standard techniques. The membrane preparation was incubated with radiolabeled nitrendipine. Non-specific binding was estimated in the presence of non-labeled nitrendipine. Membranes were filtered and washed and the filters were counted to determine radiolabelled […] Acad. Sci. USA, volume 79, pages 3656-3660 (1982), Life Sci., volume 30, pages 2191-2202, (1982).

retina of albino rats = experiment: Retinal light damage model (photochemical lesions, histology); format: in vivo, rat; settings: intraperitoneal, 48 h light exposure
Description: (§2) The retinoprotective properties of the compounds were measured in a light damage model. Photochemical lesions were induced in free moving unanesthetized albino rats by a single 48 h continuous broad-band florescent visible-light exposure. The rats were dosed by intraperitoneal injection 48 and 24 h prior to exposure, every 24 h during the exposure and once during the 24 h recovery period. Ocular tissues were obtained 24 h after light exposure. The tissues were analyzed using a quantitative computer image analyses system attached to the microscope. Retinal layer thickness, number of macrophages in the subretinal space, number of pyknotic nuclei in the outer nuclear layer, and retinal layer areas were parameters that were measured and statistically analyzed.
Control rats remaining on their normal 12 h light/12 h dark light cycle were devoid of retinal lesions upon microscopic examination and were assessed to have normal retinal function. […] The number of pyknotic photoreceptor nuclei was reduced by 50% in the outer nuclear layer compared to non-dosed animals.

retinal function of rats = experiment: Ocular function by electroretinography after light exposure; format: in vivo, rat; settings: ERG a-wave and b-wave after 48 h light exposure
Description: as §2
Ocular function was measured using electroretinography. Rats were anesthetized after a four-day recovery period in the dark. Flash ERGs were elicited by viewing a ganzfield. Electrical responses to a series of light flashes increasing in intensity were digitized to analyze response voltage-log intensity relationships.
Retinal function was assessed by measuring the electroretinogram after 48 h light exposure. The ERG allows differential examination of photoreceptor activity (a-wave) and inner nuclear layer function (b-wave) which is correlated to retinal morphology change.

[4] = value from Free Rad. Res. Comms., volume 15, pages 91-100 (1991); cited from earlier work
[5] = Summary of Activity table, test compound and DPPH 0.4 mMol
[6] = test compound and DPPH 0.4 mMol in 95% ethanol, thirty minutes
[7] = Bos taurus, Summary of Activity table, bovine retinal pieces
[8] = ADP (1 mM)/FeCl3 (10 μM), NADPH regenerating system, TBA test
[9] = Fe^+3/EDTA (167 μM) and ascorbate (167 μM), conjugate diene formation, read-out: Phospholipid Oxidation IC50
[10] = Summary of Activity table, read-out: Phosopholipid Oxidation IC50
[11] = Summary of Activity table, rat brain cortices, read-out: Ca+2 Binding IC50
[12] = rat brain cortices membrane, read-out: Ca^+2 Binding IC50

| IC50 (bovine retinal pieces; [7]) | IC50 (Liver Microsomes; [8]) | IC50 (Liver Microsomes; Summary of Activity table) | IC50 [2, 9] | IC50 [2, 10] | IC50 [3, 11] | IC50 [3, 12] | IC50 (bovine retinal pieces; Summary of Activity table, bovine retinal pieces) | IC50 (bovine retinal pieces; bovine retina, hypoxia 1 h, agent added after 50 minutes, reoxygenation 1 h, TBARS) | Structure (SMILES) | DPPH (% Quench) [1, 5] | DPPH (% Quench) [1, 6] | Singlet Oxygen Quenching Kq (Singlet oxygen quenching) | Damage to photoreceptor cells (retina of albino rats) | RPE damage (retina of albino rats) | outer and inner segment damage (photoreceptor length) (retina of albino rats) | reduction of number of pyknotic photoreceptor nuclei in the outer nuclear layer (retina of albino rats; compared to non-dosed animals) | Macrophages in the subretinal space, compared to control values (retina of albino rats; vs control values) | Macrophages in the subretinal space, compared to non-dosed light exposed rats (retina of albino rats; vs non-dosed light exposed rats) | preservation of retinal function (electroretinogram) (retinal function of rats) | DPPH (% Quench), literature value [4] |
| --- | --- | --- | --- | --- | --- | --- | --- | --- | --- | --- | --- | --- | --- | --- | --- | --- | --- | --- | --- | --- |
| 0.5 µM | 1.1 µM | 1.1 µM | 201 µM | 201 µM |  |  |  |  | Cc1cc(C(C)(C)C)c(O)c(C(C)(C)C)c1 [BHT] | 64% | 64% | IA |  |  |  |  |  |  |  |  |
| 0.01 µM | 1 µM | 1 µM | 3.6 µM | 3.6 µM | 1 to 10 µM | 1 to 10 µM |  |  | Cc1c(C)c2c(c(C)c1O)CCC(C)(CCN1CCN(C(c3ccc(F)cc3)c3ccc(F)cc3)CC1)O2 (stereo not drawn) [Compound No. 1, 1-(4,4'-difluorobenzhydryl)-4-(6-hydroxy-2,5,7,8-tetramethylchroman-2-ethyl)piperazine] | 99% | 99% |  | significantly minimized | greatly reduced | prevented outer and inner segment damage | 50% | not greater than control values | significantly reduced | Significant preservation of retinal function |  |
| 0.05 µM |  |  | 0.18 µM |  | 1 to 10 µM | 1 to 10 µM |  |  | Cc1c(C)c2c(c(C)c1O)CCC(C)(CN1CCN(C(c3ccc(F)cc3)c3ccc(F)cc3)CC1)O2 (stereo not drawn) [Compound No. 2, 1-(4,4'-difluorobenzhydryl)-4-(6-hydroxy-2,5,6,8-tetramethylchroman-2-methyl)piperazine dimaleate hemihydrate] | 96% | 96% | 1.6e+08 M⁻¹ s⁻¹ |  |  |  |  |  |  |  |  |
|  | 27.1 µM | 27.1 µM |  |  |  |  |  |  | Fc1ccc(C(c2ccc(F)cc2)N2CCN(C/C=C/c3ccccc3)CC2)cc1 [Flunarizine] |  |  | 5e+06 M⁻¹ s⁻¹ |  |  |  |  |  |  |  | 10% |
|  | 37 µM | 37 µM | 4.2 µM | 4.2 µM |  |  | 0.001 µM | 0.001 µM | Cc1c(C)c2c(c(C)c1O)CC[C@@](C)(CCC[C@H](C)CCC[C@H](C)CCCC(C)C)O2 [Vitamin E, α-tocopherol] | 87% | 87% | 1.2e+08 M⁻¹ s⁻¹ |  |  |  |  |  |  |  | 90% |
